Experimental data taken from paper PMC2581804, “Mycobacterium tuberculosis Glucosyl-3-Phosphoglycerate Synthase: Structure of a Key Enzyme in Methylglucose Lipopolysaccharide Biosynthesis” (PLoS ONE, 2008).

Target: M. tuberculosis GpgS (glucosyl-3-phosphoglycerate synthase) (Mycobacterium tuberculosis, UniProt P9WMW9)
Sequence (P9WMW9 whole entry): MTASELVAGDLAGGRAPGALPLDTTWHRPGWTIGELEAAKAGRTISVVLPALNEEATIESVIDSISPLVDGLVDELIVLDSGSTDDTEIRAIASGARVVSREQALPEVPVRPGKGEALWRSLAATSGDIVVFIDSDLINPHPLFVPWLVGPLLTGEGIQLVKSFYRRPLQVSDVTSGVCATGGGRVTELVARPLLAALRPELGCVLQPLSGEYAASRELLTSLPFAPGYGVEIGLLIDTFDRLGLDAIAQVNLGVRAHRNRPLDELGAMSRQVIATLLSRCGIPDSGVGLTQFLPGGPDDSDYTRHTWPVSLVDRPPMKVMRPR

Q: For O=C(O)[C@H](O)COP(=O)(O)O [3-phosphoglycerate], which “X-ray crystal structure of ternary complex, 2.7 A (co-crystallization)” value is on record?
A: there is clear electron density for the carboxylate region of the bound 3-phosphoglycerate
